In one data set the test system is mouse. To be noted: i.v., 20% solution; cited from earlier work.
For data set [1] the following is noted: solubility of PLGA in the solvent, Matschke et al. 2002; cited from earlier work.
For another data set, the system named is rat. To be noted: i.v., 40% DMI in isotonic saline solution (v/v); cited from earlier work.
A short description of data set [2]: viscosity of solvents, rotational viscometer. The class given is physicochemical. The note with it: 25° C.
The conditions of data set [3]: in vivo; cited from earlier work.
In the next data set the test system is mesothelial cells. The note with it: human. On the procedure:
In addition to 10% fetal calf serum (PPA Laboratories, Austria) an epidermal growth factor (5 ng/ml, Sigma-Aldrich, Germany) and hydrocortisone (400 ng/ml, Sigma-Aldrich, Germany) were added to the medium. Furthermore, the cells were passaged at a confluence of about 80% and used for tests up to a passage of 20.
The cytotoxicity of the solvent was determined by an ATP-based assay (ATPlite, Perkin Elmer). […] After the incubation period, the medium was sucked off, the cells were washed once with PBS, 50 μl PBS per well was added, and the cell viability was determined according to the manufacturer's instructions. […] For each point in time, the concentration of the solvent was plotted against the measured cell viability (mean values±standard deviation from n=4 runs) and a non-linear standard function was adapted: […]
The LD50 values were taken from the estimated values of the plotted regression curve. It is the concentration at which a cell viability of still 50% could be measured.
In addition, the influence of the solvent on the metabolic cell viability was studied for a period of 11 hours. Metabolic cell viability is determined by the ATP value of the cells, which is a measure of viability. […]

As to `CO[C@H]1CO[C@H]2[C@@H]1OC[C@H]2OC` [DMI, Dimethyl isosorbide], the LD50 in the data set with mouse is recorded as 6.9 g/kg body weight; in the data set with rat, 5.4 g/kg body weight. For the same molecule, the PLGA solubility in data set [1] is recorded as 41%. Further, the “η (kinematic viscosity)” value in data set [2] is 8.16 mPas.
Regarding `CCOC(=O)[C@H](C)O` [Ethyl l-lactate], the “η (kinematic viscosity)” value in data set [2] was found to be 2.74 mPas.
Take `CC(=O)OCC(COC(C)=O)OC(C)=O` [Triacetin]: in data set [1], the PLGA solubility is reported as 35%. Also, in data set [2], the “η (kinematic viscosity)” value stood at 18.75 mPas.
With “Alteplase: recombinantly produced t-PA protein”, the half-life in plasma in data set [3] is 3 to 6 min.
glycerol formal: in data set [1], the PLGA solubility is on record as 33%. Further, the “tolerance (LD50) higher by a factor compared to tetraglycol” value with mesothelial cells was 400. For the same molecule, the “η (kinematic viscosity)” value in data set [2] worked out at 14.4 mPas.
Consider “tetrahydrofurfuryl alcohol polyethyleneglycol [tetraglycol]”, for which, in data set [2], the “η (kinematic viscosity)” value was 16.6 mPas.

Values taken from patent US20140243395A1, “SPRAY SYSTEM FOR PRODUCTION OF A MATRIX FORMED IN SITU” (ETHRIS GMBH, priority 2011, published 2014).
